# In ChEMBL document CHEMBL3792352, “3D-QSAR-aided design, synthesis, in vitro and in vivo evaluation of dipeptidyl boronic acid proteasome inhibitors and mechanism studies” (Bioorg Med Chem, 2016):
# Target: T1, Proteasome Macropain subunit MB1 (Homo sapiens, UniProt P28074)
# T1 sequence (P28074 whole entry): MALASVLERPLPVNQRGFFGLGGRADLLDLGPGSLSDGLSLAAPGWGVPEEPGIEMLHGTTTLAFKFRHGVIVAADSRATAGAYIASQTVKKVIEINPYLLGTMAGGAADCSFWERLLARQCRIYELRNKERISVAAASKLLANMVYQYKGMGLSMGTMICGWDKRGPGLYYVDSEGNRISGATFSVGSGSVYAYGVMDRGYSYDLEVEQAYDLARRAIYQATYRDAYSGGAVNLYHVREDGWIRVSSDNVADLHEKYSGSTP
# Test: Inhibition of chymotrypsin like activity of human 20S proteasome using Suc-Leu-Leu-Val-Tyr-AMC as substrate preincubated for 10 mins followed by substrate addition measured after 1 hr by spectrofluorimetric analysis
# Conditions: read-out: IC50
row,Compound,IC50
1,CC(C)C[C@H](NC(=O)[C@H](Cc1ccc(C(F)(F)F)cc1)NC(=O)c1cc(Cl)ccc1Cl)B(O)O,8.32 nM
2,CC(C)C[C@H](NC(=O)[C@@H](NC(=O)C1CCCc2ccccc21)C(C)C)B1OC2C[C@@H]3C[C@@H](C3(C)C)[C@]2(C)O1 (some centres not stated),39 nM
3,CC(C)C[C@H](NC(=O)[C@H](Cc1cc(C(F)(F)F)cc(C(F)(F)F)c1)NC(=O)c1cc(Cl)ccc1Cl)B(O)O,25 nM
4,CC(C)C[C@H](NC(=O)[C@H](Cc1cccc2ccccc12)NC(=O)c1ccc2ccccc2c1)B1OC2C[C@@H]3C[C@@H](C3(C)C)[C@]2(C)O1 (some centres not stated),2.46 nM
5,CCC(C)[C@H](NC(=O)C1CCCc2ccccc21)C(=O)N[C@@H](CC(C)C)B1OC2C[C@@H]3C[C@@H](C3(C)C)[C@]2(C)O1 (some centres not stated),17.2 nM
6,CC(C)C[C@H](NC(=O)[C@H](Cc1c[nH]c2ccccc12)NC(=O)C1CCCc2ccccc21)B1OC2C[C@@H]3C[C@@H](C3(C)C)[C@]2(C)O1 (some centres not stated),3.67 nM
7,CC(C)C[C@H](NC(=O)[C@H](CC(C)C)NC(=O)c1cccc2c1CCCC2)B1OC2C[C@@H]3C[C@@H](C3(C)C)[C@]2(C)O1 (some centres not stated),1.15 nM
8,CC(C)C[C@H](NC(=O)[C@H](Cc1ccc2ccccc2c1)NC(=O)[C@H]1CCCc2ccccc21)B1OC2C[C@@H]3C[C@@H](C3(C)C)[C@]2(C)O1 (some centres not stated),6.12 nM
9,CC(C)C[C@H](NC(=O)[C@H](Cc1ccc2ccccc2c1)NC(=O)c1cccc2c1CCCC2)B1OC2C[C@@H]3C[C@@H](C3(C)C)[C@]2(C)O1 (some centres not stated),1.16 nM
10,CC(C)C[C@H](NC(=O)[C@H](Cc1ccc(C(F)(F)F)cc1)NC(=O)c1cnccn1)B(O)O,42.6 nM
11,CC(C)C[C@H](NC(=O)[C@H](Cc1ccc2ccccc2c1)NC(=O)C1CCCc2ccccc21)B1OC2C[C@@H]3C[C@@H](C3(C)C)[C@]2(C)O1 (some centres not stated),7.63 nM
12,Cc1cnc(C(=O)N[C@@H](Cc2ccccc2)C(=O)N[C@@H](CC(C)C)B(O)O)cn1,26.2 nM

# Next, values leading:
row,IC50,Compound
1,1.16 nM,Cc1ccc(C[C@H](NC(=O)[C@H](Cc2ccccc2)NC(=O)C2CCc3ccccc3C2)B2OC3C[C@@H]4C[C@@H](C4(C)C)[C@]3(C)O2)cc1 (some centres not stated)
2,49.5 nM,CCCC[C@H](NC(=O)[C@H](CC(C)C)NC(=O)OC(C)(C)C)B1OC2C[C@@H]3C[C@@H](C3(C)C)[C@]2(C)O1 (some centres not stated)
3,3.37 nM,CC1(C)[C@@H]2CC3OB([C@H](Cc4ccccc4)NC(=O)[C@H](Cc4ccccc4)NC(=O)C4CCc5ccccc5C4)O[C@@]3(C)[C@H]1C2 (some centres not stated)
4,6.7 nM,Cc1ccc(C[C@H](NC(=O)[C@H](Cc2ccccc2)NC(=O)[C@H]2CCCc3ccccc32)B2OC3C[C@@H]4C[C@@H](C4(C)C)[C@]3(C)O2)cc1 (some centres not stated)
5,14.2 nM,CC(C)C[C@H](NC(=O)[C@H](CC(C)C)NC(=O)C1CCCc2ccccc21)B1OC2C[C@@H]3C[C@@H](C3(C)C)[C@]2(C)O1 (some centres not stated)
6,114 nM,CC(C)(C)OC(=O)N[C@@H](Cc1ccc(O)cc1)C(=O)N[C@@H](Cc1ccccc1)B1OC2C[C@@H]3C[C@@H](C3(C)C)[C@]2(C)O1 (some centres not stated)
7,8.46 nM,CCCC[C@H](NC(=O)[C@H](Cc1ccccc1)NC(C)=O)B1OC2C[C@@H]3C[C@@H](C3(C)C)[C@]2(C)O1 (some centres not stated)
8,4.85 nM,Cc1ccc(C[C@H](NC(=O)[C@H](Cc2ccccc2)NC(=O)c2cnccn2)B2OC3C[C@@H]4C[C@@H](C4(C)C)[C@]3(C)O2)cc1 (some centres not stated)
9,4.18 nM,CC(C)C[C@H](NC(=O)[C@H](Cc1ccccc1)NC(=O)C1CCCc2ccccc21)B1OC2C[C@@H]3C[C@@H](C3(C)C)[C@]2(C)O1 (some centres not stated)

# Test system: not listed separately
# Test: Cytotoxicity against human RPMI8226 cells assessed as cell viability after 72 hrs by CellTiter 96 aqueous one solution cell proliferation assay
# Format: functional, RPMI-8226
# Conditions: not given
row,Compound,Activity
1,CC(C)C[C@H](NC(=O)[C@H](Cc1ccc(C(F)(F)F)cc1)NC(=O)c1cc(Cl)ccc1Cl)B(O)O,233.7%
2,CC(C)C[C@H](NC(=O)[C@H](Cc1ccccc1)NC(=O)c1cnccn1)B(O)O [BORTEZOMIB],11.2%

# Test system: not listed separately
# Test: Cytotoxicity against human ARH77 cells assessed as cell viability after 72 hrs by CellTiter 96 aqueous one solution cell proliferation assay
# Format: functional, ARH-77
# Conditions: not given
row,Compound,Activity
1,CC(C)C[C@H](NC(=O)[C@H](Cc1ccc(C(F)(F)F)cc1)NC(=O)c1cc(Cl)ccc1Cl)B(O)O,98.15%
2,CC(C)C[C@H](NC(=O)[C@H](Cc1ccccc1)NC(=O)c1cnccn1)B(O)O [BORTEZOMIB],9.57%

# Test system: not listed separately
# Test: Cytotoxicity against human U266B1 cells assessed as cell viability after 72 hrs by CellTiter 96 aqueous one solution cell proliferation assay
# Format: functional, U-266
# Conditions: not given
row,Compound,Activity
1,CC(C)C[C@H](NC(=O)[C@H](Cc1ccc(C(F)(F)F)cc1)NC(=O)c1cc(Cl)ccc1Cl)B(O)O,100.4%
2,CC(C)C[C@H](NC(=O)[C@H](Cc1ccccc1)NC(=O)c1cnccn1)B(O)O [BORTEZOMIB],11.63%
